Results from patent publication US10517889B2, “Modulators of SMAD7 expression” (Ionis Pharmaceuticals, Inc., priority 2017, dated 2019).
Strand notation (5' to 3'): a small letter for the sugar, then the base; units joined by * are phosphorothioate-linked, units joined directly phosphodiester-linked; [ ] holds rarer units or linkages, { } end groups; capitals alone tell only the bases. k = constrained ethyl (cEt); [5mC] = 5-methylcytosine; d = 2'-deoxy (DNA)

Tested on: human SMAD7 mRNA
Assay: Antisense inhibition of human SMAD7 mRNA expression in Hep3B cells by 3-10-3 cEt gapmers, 10,000 nM, electroporation (Example 2)
Type: cell-based
Details: Hep3B cells, electroporation with 10,000 nM antisense oligonucleotide, approximately 24 hours, SMAD7 mRNA by RT-PCR (RTS5062), relative to untreated control cells
Procedure, shortened: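 Percent inhibition of SMAD7 mRNA, relative to untreated cells, after ~24 h exposure of electroporated Hep3B cells to 10,000 nM cEt gapmer; levels by qRT-PCR, corrected for total RNA.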

Row | Substance | % Inhibition [%]
1 | 799407 (antisense kT*kG*k[5mC]*dA*dG*dG*dA*dA*dA*d[5mC]*d[5mC]*d[5mC]*dA*kA*kG*kG) [compound 799407] | 33
2 | 799408 (antisense kT*kT*kA*dA*dA*dT*d[5mC]*d[5mC]*dT*dG*dA*dG*dA*kA*k[5mC]*kA) [compound 799408] | 27
3 | 799409 (antisense k[5mC]*kT*kA*d[5mC]*d[5mC]*dT*dA*dA*dT*dG*dT*d[5mC]*dA*kA*k[5mC]*kA) [compound 799409] | 34
4 | 799411 (antisense kT*kG*kG*dA*dG*dA*dA*d[5mC]*dT*dT*dT*dT*d[5mC]*kT*k[5mC]*k[5mC]) [compound 799411] | 0
5 | 799413 (antisense kA*kT*kT*dA*d[5mC]*dT*dG*dA*dT*dG*d[5mC]*dT*dA*kA*kA*kT) [compound 799413] | 34
6 | 799414 (antisense k[5mC]*kA*kA*dA*dA*d[5mC]*d[5mC]*dA*dG*d[5mC]*d[5mC]*d[5mC]*d[5mC]*kA*kG*kA) [compound 799414] | 34
7 | 799415 (antisense kG*k[5mC]*k[5mC]*dA*d[5mC]*dA*dG*d[5mC]*dA*dG*d[5mC]*dT*dG*kG*k[5mC]*kA) [compound 799415] | 0
8 | 799426 (antisense kG*k[5mC]*kT*dT*dA*dA*dA*dT*dT*dA*dT*dA*dG*k[5mC]*kA*kA) [compound 799426] | 7
9 | 799427 (antisense kG*kT*k[5mC]*d[5mC]*dA*dG*dG*d[5mC]*d[5mC]*dT*d[5mC]*d[5mC]*d[5mC]*kA*kG*kA) [compound 799427] | 20
10 | 799428 (antisense kG*kA*k[5mC]*d[5mC]*dA*d[5mC]*dA*d[5mC]*dA*dG*dT*dA*d[5mC]*k[5mC]*kT*kA) [compound 799428] | 47
11 | 799430 (antisense kA*kG*k[5mC]*d[5mC]*dA*d[5mC]*dA*dA*dG*dT*d[5mC]*dA*d[5mC]*kA*kA*k[5mC]) [compound 799430] | 29
12 | 799431 (antisense kG*kA*k[5mC]*dA*dG*d[5mC]*d[5mC]*dA*d[5mC]*dA*dA*dG*dT*k[5mC]*kA*k[5mC]) [compound 799431] | 39
13 | 799432 (antisense kT*kG*kA*d[5mC]*dA*dG*d[5mC]*d[5mC]*dA*d[5mC]*dA*dA*dG*kT*k[5mC]*kA) [compound 799432] | 7
14 | 799433 (antisense kT*kT*k[5mC]*dT*dT*dG*dT*dG*dG*dG*dA*dT*dG*kT*kG*kG) [compound 799433] | 56
15 | 799434 (antisense kT*kG*kA*dA*dA*d[5mC]*dA*d[5mC]*dG*dG*dG*dA*dA*kG*k[5mC]*kA) [compound 799434] | 37
16 | 799435 (antisense kT*k[5mC]*k[5mC]*dT*d[5mC]*dA*dA*dA*d[5mC]*d[5mC]*dT*dT*dT*k[5mC]*kA*kG) [compound 799435] | 60
17 | 799446 (antisense kG*kA*k[5mC]*d[5mC]*dT*dA*dA*dT*d[5mC]*dT*d[5mC]*dT*dT*kT*k[5mC]*kA) [compound 799446] | 48
18 | 799447 (antisense kA*kT*kG*dA*dA*dT*dG*dA*d[5mC]*d[5mC]*dT*dA*dA*kT*k[5mC]*kT) [compound 799447] | 30
19 | 799448 (antisense kG*kT*kA*dA*dA*dA*dT*dG*dA*dA*dT*dG*dA*k[5mC]*kT*kG) [compound 799448] | 41
20 | 799449 (antisense k[5mC]*kA*kG*d[5mC]*dA*d[5mC]*dT*dG*d[5mC]*dA*dT*d[5mC]*dG*kG*kA*kA) [compound 799449] | 37
21 | 799450 (antisense kA*kA*kG*dA*dA*d[5mC]*dA*d[5mC]*dA*dG*d[5mC]*dA*d[5mC]*kT*kG*k[5mC]) [compound 799450] | 53
22 | 799451 (antisense kA*kA*kA*dG*dA*dA*d[5mC]*dA*d[5mC]*dA*dG*d[5mC]*dA*k[5mC]*kT*kG) [compound 799451] | 41
23 | 799452 (antisense kA*kA*kA*dA*dG*dA*dA*d[5mC]*dA*d[5mC]*dA*dG*d[5mC]*kA*k[5mC]*kT) [compound 799452] | 44
24 | 799453 (antisense kA*k[5mC]*kA*d[5mC]*dA*dG*d[5mC]*dA*d[5mC]*dT*dG*d[5mC]*d[5mC]*kA*kG*kG) [compound 799453] | 58
25 | 799454 (antisense kT*kT*kA*dA*dA*dG*dA*d[5mC]*dA*dG*dA*dG*dG*kA*kG*k[5mC]) [compound 799454] | 55
26 | 799455 (antisense kT*kG*kT*dT*dA*dA*dA*dG*dA*d[5mC]*dA*dG*dA*kG*kG*kA) [compound 799455] | 55

Same assay, conditions: Hep3B cells, electroporation with 10,000 nM antisense oligonucleotide, approximately 24 hours, primer probe set RTS5062, relative to untreated control cells

Row | Substance | % inhibition of SMAD7 mRNA expression [%]
27 | 799403 (antisense kG*k[5mC]*kT*dA*dA*dG*dG*dT*d[5mC]*dA*d[5mC]*dT*dG*kT*kT*k[5mC]) [compound 799403] | 0
28 | 799405 (antisense k[5mC]*kT*kG*dG*dG*dA*dA*d[5mC]*dA*dT*dT*dT*dA*k[5mC]*k[5mC]*k[5mC]) [compound 799405] | 28
29 | 799416 (antisense kA*kA*kG*dA*d[5mC]*d[5mC]*dT*dG*dG*dG*dT*d[5mC]*dA*kG*k[5mC]*kG) [compound 799416] | 41
30 | 799417 (antisense kG*kG*k[5mC]*d[5mC]*dA*dA*dA*d[5mC]*dA*dT*dT*d[5mC]*dT*k[5mC]*k[5mC]*k[5mC]) [compound 799417] | 26
31 | 799418 (antisense kG*kT*kA*dA*dA*dT*dG*dG*dT*d[5mC]*d[5mC]*dA*dT*kG*kT*kA) [compound 799418] | 12
32 | 799419 (antisense kA*kA*kA*dA*dA*dT*dT*d[5mC]*dA*dA*d[5mC]*d[5mC]*dT*kA*kA*kG) [compound 799419] | 0
33 | 799420 (antisense k[5mC]*kA*kA*dG*dA*d[5mC]*d[5mC]*dA*dA*dA*dA*dA*dT*kT*k[5mC]*kA) [compound 799420] | 32
34 | 799421 (antisense kA*kA*k[5mC]*d[5mC]*d[5mC]*dA*dA*dG*dA*d[5mC]*d[5mC]*dA*dA*kA*kA*kA) [compound 799421] | 63
35 | 799422 (antisense kG*kA*kT*dT*dT*dT*dA*dA*d[5mC]*dA*dG*dT*dT*kG*kT*k[5mC]) [compound 799422] | 33
36 | 799423 (antisense kT*kA*k[5mC]*d[5mC]*dA*dG*dG*d[5mC]*d[5mC]*d[5mC]*d[5mC]*dA*dG*k[5mC]*k[5mC]*k[5mC]) [compound 799423] | 14
37 | 799424 (antisense k[5mC]*kT*k[5mC]*d[5mC]*dA*dA*dA*dG*dG*d[5mC]*dT*dG*d[5mC]*kA*kG*kG) [compound 799424] | 34
38 | 799425 (antisense kA*kT*kT*dA*dT*dA*dG*d[5mC]*dA*dA*dA*dA*dT*kG*kG*kA) [compound 799425] | 23
39 | 799436 (antisense kA*kG*k[5mC]*d[5mC]*dA*dT*dT*d[5mC]*d[5mC]*dT*d[5mC]*dA*dA*kA*k[5mC]*k[5mC]) [compound 799436] | 4
40 | 799437 (antisense k[5mC]*k[5mC]*kA*dG*dA*dT*d[5mC]*dT*d[5mC]*dA*dG*dG*dT*k[5mC]*kA*kA) [compound 799437] | 26
41 | 799438 (antisense kA*kA*kG*dA*dG*dA*dG*dA*dA*dA*d[5mC]*dG*d[5mC]*kA*kG*kT) [compound 799438] | 32
42 | 799439 (antisense kA*kA*kG*dA*dG*dG*dG*dA*d[5mC]*d[5mC]*dT*d[5mC]*dG*kG*kT*kT) [compound 799439] | 0
43 | 799440 (antisense kT*kA*kG*dA*dA*dA*dA*dG*dT*dT*dA*dA*dG*kA*kG*kG) [compound 799440] | 41
44 | 799441 (antisense k[5mC]*kT*kA*dG*dA*dA*dA*dA*dG*dT*dT*dA*dA*kG*kA*kG) [compound 799441] | 22
45 | 799442 (antisense kG*kA*kT*dT*dT*dT*dA*dA*dA*dA*dG*dA*dG*kG*k[5mC]*k[5mC]) [compound 799442] | 0
46 | 799443 (antisense kT*k[5mC]*kA*dT*dG*d[5mC]*dT*dG*dA*dT*dT*dT*dT*kA*kA*kA) [compound 799443] | 24
47 | 799444 (antisense k[5mC]*kA*kT*d[5mC]*dA*dT*dG*d[5mC]*dT*dG*dA*dT*dT*kT*kT*kA) [compound 799444] | 45
48 | 799445 (antisense k[5mC]*k[5mC]*kT*dA*dA*dT*d[5mC]*dT*d[5mC]*dT*dT*dT*d[5mC]*kA*kT*k[5mC]) [compound 799445] | 28
49 | 799456 (antisense kT*k[5mC]*k[5mC]*dT*dA*dA*dG*dT*dA*d[5mC]*dT*dG*dT*kT*kA*kA) [compound 799456] | 0
50 | 799457 (antisense k[5mC]*kA*k[5mC]*dG*dA*dT*dA*dG*dT*d[5mC]*dT*d[5mC]*dA*kG*k[5mC]*kA) [compound 799457] | 62
51 | 799458 (antisense kT*kT*kG*dA*dA*dA*dA*d[5mC]*d[5mC]*d[5mC]*dA*dA*d[5mC]*k[5mC]*k[5mC]*kT) [compound 799458] | 3
52 | 799459 (antisense kA*k[5mC]*kA*dG*dA*dG*dT*d[5mC]*dT*dT*dT*dG*dA*kA*kA*kA) [compound 799459] | 0
53 | 799460 (antisense k[5mC]*kA*kA*d[5mC]*dA*dG*dA*dG*dT*d[5mC]*dT*dT*dT*kG*kA*kA) [compound 799460] | 29
